Assays:
A1 adenosine receptor = target: T1, A1 adenosine receptor (Homo sapiens, UniProt P30542); assay: cyclic AMP HTRF functional assay, CHO-K1 (A1); format: cell-based; details: CHO-K1 cells
T1 sequence (P30542 1-326): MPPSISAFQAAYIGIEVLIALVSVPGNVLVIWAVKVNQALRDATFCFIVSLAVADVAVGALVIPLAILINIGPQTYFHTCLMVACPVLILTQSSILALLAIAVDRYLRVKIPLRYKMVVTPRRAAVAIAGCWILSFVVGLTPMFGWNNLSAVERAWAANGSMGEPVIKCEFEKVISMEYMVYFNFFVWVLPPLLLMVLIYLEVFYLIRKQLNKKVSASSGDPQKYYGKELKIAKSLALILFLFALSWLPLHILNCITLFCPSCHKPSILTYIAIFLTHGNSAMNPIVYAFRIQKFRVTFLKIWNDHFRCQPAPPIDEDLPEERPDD
Description: (§1) Next, the functional activity of 11o against A1 and A2A adenosine receptors was evaluated using c-AMP assay in CHO-K1 (A1) and HEK-293 (A2A) cells.
(§2) For functional studies, A1 and A2A receptor cyclic AMP HTRF (homogeneous time resolved fluorescence) assay was performed at EuroscreenFast (Charleroi, Belgium) using CHO-K1 (A1) and HEK293 (A2A) stable cell line with CPA (A1) and NECA (A2A) as reference agonist and DPCPX (A1) and ZM241385 (A2A) as reference antagonist compound.

A2A adenosine receptor = A2A adenosine receptor (Homo sapiens, UniProt P29274); assay: cyclic AMP HTRF functional assay, HEK-293 (A2A); format: cell-based; details: HEK-293 cells
A2A adenosine receptor, sequence (P29274 whole entry): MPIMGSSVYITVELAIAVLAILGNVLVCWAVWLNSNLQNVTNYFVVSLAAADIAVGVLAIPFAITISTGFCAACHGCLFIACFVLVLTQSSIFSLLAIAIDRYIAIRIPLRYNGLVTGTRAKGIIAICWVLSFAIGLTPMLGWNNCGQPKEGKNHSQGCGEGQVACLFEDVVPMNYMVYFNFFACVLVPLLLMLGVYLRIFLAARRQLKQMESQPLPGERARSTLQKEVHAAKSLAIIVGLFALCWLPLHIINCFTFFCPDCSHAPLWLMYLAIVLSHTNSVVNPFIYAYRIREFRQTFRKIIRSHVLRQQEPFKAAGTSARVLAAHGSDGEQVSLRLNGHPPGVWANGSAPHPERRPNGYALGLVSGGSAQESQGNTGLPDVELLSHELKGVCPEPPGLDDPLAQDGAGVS
Description: as §1, §2

[1] = metabolic stability in cryopreserved mouse hepatocytes
Description: Metabolic stability of 11o was determined in cryopreserved hepatocytes from mice, rats, dogs, monkeys and human according to the SOPs of Frontage Laboratories Inc. Briefly, cryopreserved hepatocytes for pre-clinical animals and for human (BioIVT, Westbury, NY, USA) were thawed in a 37 °C water bath with gentle shaking until ice had almost melted. The suspensions were immediately transferred to a centrifuge tube (50 mL) containing pre-warmed thawing media at 37 °C with gentle handshaking to prevent the cells from settling. Cell suspensions were centrifuged at 50× g and 4 °C for 5 min. The supernatant was discarded and the pellets were resuspended in prewarmed incubation media (5 mL) at 37 °C. The percentage of viable cells in the suspension was determined by Trypan blue staining method to ensure viability of ≥70 %. […] The samples were centrifuged and aliquots of the supernatant were analyzed for parent compounds by LC/MS/MS using suitable multiple reaction monitoring (MRM) transitions. […] The disappearance of 11o and midazolam was monitored by LC/MS/MS (MRM) analysis of the hepatocyte extracts at each time point. The peak area ratio of the analyte to internal standard was obtained for each sample and the rate of disappearance of 11o was assessed by comparing the peak area ratios at various time points to the peak area ratio obtained at t = 0. The t1/2 is obtained (using the linear portion of semi-log plot of the area ratio vs. time) and the CLint values determined using well-stirred model.

hERG = target: T2, hERG (Homo sapiens, UniProt Q12809); assay: hERG manual patch clamp in hERG-expressing HEK cells; format: cell-based; details: read-out: hERG inhibition IC50
T2 construct: host or cells: HEK cells stably expressing hERG
T2 sequence (Q12809 whole entry): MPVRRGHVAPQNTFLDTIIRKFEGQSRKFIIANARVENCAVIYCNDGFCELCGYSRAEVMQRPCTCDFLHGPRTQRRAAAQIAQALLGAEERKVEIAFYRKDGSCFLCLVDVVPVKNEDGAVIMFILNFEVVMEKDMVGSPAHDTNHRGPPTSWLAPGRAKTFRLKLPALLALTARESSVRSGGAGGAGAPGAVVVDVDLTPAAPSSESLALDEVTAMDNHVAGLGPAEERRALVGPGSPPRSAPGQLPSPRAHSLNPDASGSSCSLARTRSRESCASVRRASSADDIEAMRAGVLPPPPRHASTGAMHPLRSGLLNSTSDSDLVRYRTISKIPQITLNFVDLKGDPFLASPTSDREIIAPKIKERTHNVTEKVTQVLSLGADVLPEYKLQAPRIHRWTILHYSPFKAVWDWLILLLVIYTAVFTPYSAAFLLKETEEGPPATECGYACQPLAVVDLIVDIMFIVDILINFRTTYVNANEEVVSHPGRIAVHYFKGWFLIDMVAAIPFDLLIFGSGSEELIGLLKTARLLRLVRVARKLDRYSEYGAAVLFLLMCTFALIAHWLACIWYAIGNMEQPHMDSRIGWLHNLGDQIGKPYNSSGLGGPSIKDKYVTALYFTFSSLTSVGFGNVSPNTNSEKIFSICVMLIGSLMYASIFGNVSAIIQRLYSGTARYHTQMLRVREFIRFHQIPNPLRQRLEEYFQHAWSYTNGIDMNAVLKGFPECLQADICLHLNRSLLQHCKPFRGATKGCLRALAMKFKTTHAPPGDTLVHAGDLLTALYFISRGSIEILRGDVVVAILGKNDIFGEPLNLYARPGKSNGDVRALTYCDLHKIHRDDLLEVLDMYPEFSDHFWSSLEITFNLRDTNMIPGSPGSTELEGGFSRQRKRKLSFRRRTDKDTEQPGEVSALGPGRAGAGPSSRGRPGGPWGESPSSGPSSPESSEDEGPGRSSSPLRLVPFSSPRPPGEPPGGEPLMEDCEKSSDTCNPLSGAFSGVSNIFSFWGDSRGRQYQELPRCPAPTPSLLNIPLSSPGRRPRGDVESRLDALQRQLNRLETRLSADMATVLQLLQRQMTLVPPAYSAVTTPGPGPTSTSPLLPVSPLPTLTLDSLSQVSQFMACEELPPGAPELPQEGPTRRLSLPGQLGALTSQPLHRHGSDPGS
Description: hERG (human-ether-a-go-go) liability was investigated in an hERG-expressing HEK cell line using the manual patch clamp method to assess the potential cardiotoxicity of 11o.
hERG ion channel-blocking profile of acute exposure to 11o was performed in stably expressing HEK cells at Nova Research Laboratories (New Orleans, LA, USA). Briefly, cloned equivalent of the human IKr, hERG, was used. Cells were obtained from Cytogentrics Bioscience GmbH (Jachim-Jungius-Strafe 9, 18,059 Rostock, Germany). Internal and external recording solutions as well as data acquisition and analysis were as previously described.

[2] = maximum tolerated dose, single oral administration, dog; details: both sexes, in vivo, single oral administration, male and female beagle dogs
Description: (§3) Rat and dog MTD studies were performed at Frontage Laboratories Inc following testing facility’s SOPs. All procedures described were reviewed and approved by the Institutional Animal Care and Use Committee (IACUC) at Frontage Laboratories Inc.
(§4) For dog MTD study, male and female beagle dogs (Canis familiaris) of 1.3 to 1.4 years of age were from Frontage Laboratories’ test facility stock colony, originally procured from Marshall BioResources (North Rose, NY, USA). The health status of the animals was reviewed by a staff veterinarian. Data collected on animals prior to release to study were maintained as testing facility records. Same dogs were used for each dose event. Animals received a single dose of 11o in 0.5% methyl cellulose via oral gavage starting from 50 mg/kg dose level in 5 mL/kg dose volume. Subsequent doses occurred 3 or 4 days following the previous dose and were increased based on findings from the previous dosing(s). The procedure continued until four dosing events occurred. Animals were fasted overnight prior to each dose administration with food provided approximately 4 h post-dose. Animals were observed once in the morning and once in the afternoon throughout the study for clinical observations. Body weights were measured on the day prior to dose administration. Data were collected and reported electronically using Provantis^TM (Instem LSS Ltd., Staffordshire, UK).

beagle dogs = assay: as above; details: in vivo, po
Description: as §3, §4

[3] = CD-1, mouse, cryopreserved hepatocytes in suspension

Q: Which “functional activity at A1 receptor” value (A1 adenosine receptor) does the source give for `Cc1cc(Cn2ncc3c(-c4cccc(C#N)c4F)nc(N)nc32)ccc1N` [11o, 3-(6-Amino-1-(4-amino-3-methylbenzyl)-1H-pyrazolo[3,4-d]pyrimidin-4-yl)-2-fluorobenzonitrile] here?
A: Its value is “full antagonism”.

Q: And the IC50 (A1 adenosine receptor; read-out: IC50, A1 functional antagonism (c-AMP))?
A: Its IC50 is 98.8 nM.

Q: What about the “functional activity at A2A receptor” value (A2A adenosine receptor) of the same compound?
A: Its value is “full antagonism”.

Q: And the IC50 (A2A adenosine receptor; read-out: IC50, A2A functional antagonism (c-AMP))?
A: The IC50 was 136 nM.

Q: What about the CLint scaled at 1 μM [1, 3] of the same compound?
A: The CLint scaled at 1 μM was 115 mL/min/kg.

Q: What about the half-life at 1 μM [1, 3] of the same compound?
A: Its half-life at 1 μM is 70.9 min.

Q: And the hepatocyte CLint at 1 μM [1, 3]?
A: The hepatocyte CLint at 1 μM was 9.8 µL/min/1e6 cells.

Q: What about the “Intrinsic Clearance” value ([1]; mouse hepatocytes, 1 μM 11o) of the same compound?
A: Its value is 0.00977 mL/min/10^6 Cells.

Q: And the IC50 (hERG)?
A: The IC50 was 116 µM.

Q: What about the MTD [2] of the same compound?
A: Its MTD is > 400 mg/kg.

Q: And the “body weight change, female dogs” value (beagle dogs)?
A: The value was −6.5%.

Q: And the “body weight change, male dogs” value (beagle dogs)?
A: The value was −5.7%.

— PMC9394284, “Discovery of Novel Dual Adenosine A2A and A1 Receptor Antagonists with 1H-Pyrazolo[3,4-d]pyrimidin-6-amine Core Scaffold as Anti-Parkinson’s Disease Agents” (Pharmaceuticals, 2022)
